Test results taken from US20150105252A1, “SUBSTITUTED PYRAZOLES AS HERBICIDES” (E I DU PONT DE NEMOURS AND COMPANY, priority 2013, published 2015).

Columns and labels:
rice = assay: Test C flooded paddy test; format: in vivo, Oryza sativa; details: Flood
Outline: (§1)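 Visual injury ratings against untreated controls, taken 13 to 15 days after compound was added to paddy water standing 3 cm above the soil.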

wheat [1] = assay: Test A postemergence; format: in vivo, Triticum aestivum; details: Postemergence, 1000 g ai/ha; visual rating after approx. 10 days, 0 to 100 scale (0 no effect, 100 complete control)
Outline: (§2)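 After sowing in a sand–loam mix, pots received compound preemergence by directed soil spray, or postemergence once plants reached the one- to two-leaf stage (2–10 cm). Formulation contained surfactant in a non-phytotoxic solvent. Injury was scored visually after ~10 greenhouse days, 0–100 scale.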

sedge, umbrella = assay: Test C flooded paddy test; format: in vivo, Cyperus difformis; details: Flood
Outline: as §1

crabgrass, large [2] = assay: Test A preemergence; format: in vivo, Digitaria sanguinalis; details: Preemergence, 1000 g ai/ha; 0 to 100 scale, 0 no effect, 100 complete control
Outline: as §2

pigweed [3] = assay: Test A postemergence; format: in vivo, Amaranthus retroflexus; details: Postemergence, 1000 g ai/ha; visual rating after approx. 10 days, 0 to 100 scale (0 no effect, 100 complete control)
Outline: as §2

foxtail, giant [4] = assay: Test A postemergence; format: in vivo, Setaria faberii; details: Postemergence, 1000 g ai/ha; visual rating after approx. 10 days, 0 to 100 scale (0 no effect, 100 complete control)
Outline: as §2

velvetleaf [5] = assay: Test A preemergence; format: in vivo, Abutilon theophrasti; details: Preemergence, 1000 g ai/ha; 0 to 100 scale, 0 no effect, 100 complete control
Outline: as §2

crabgrass, large [6] = assay: Test A postemergence; format: in vivo, Digitaria sanguinalis; details: Postemergence, 1000 g ai/ha; visual rating after approx. 10 days, 0 to 100 scale (0 no effect, 100 complete control)
Outline: as §2

morningglory [7] = assay: Test A preemergence; format: in vivo, Ipomoea spp.; details: Preemergence, 1000 g ai/ha; 0 to 100 scale, 0 no effect, 100 complete control
Outline: as §2

pigweed [8] = assay: Test A preemergence; format: in vivo, Amaranthus retroflexus; details: Preemergence, 1000 g ai/ha; 0 to 100 scale, 0 no effect, 100 complete control
Outline: as §2

corn [9] = assay: Test A postemergence; format: in vivo, Zea mays; details: Postemergence, 1000 g ai/ha; visual rating after approx. 10 days, 0 to 100 scale (0 no effect, 100 complete control)
Outline: as §2

velvetleaf [10] = assay: Test A postemergence; format: in vivo, Abutilon theophrasti; details: Postemergence, 1000 g ai/ha; visual rating after approx. 10 days, 0 to 100 scale (0 no effect, 100 complete control)
Outline: as §2

foxtail, giant [11] = assay: Test A preemergence; format: in vivo, Setaria faberii; details: Preemergence, 1000 g ai/ha; 0 to 100 scale, 0 no effect, 100 complete control
Outline: as §2

wheat [12] = assay: Test A preemergence; format: in vivo, Triticum aestivum; details: Preemergence, 1000 g ai/ha; 0 to 100 scale, 0 no effect, 100 complete control
Outline: as §2

barnyardgrass [13] = assay: Test A postemergence; format: in vivo, Echinochloa crus-galli; details: Postemergence, 1000 g ai/ha; visual rating after approx. 10 days, 0 to 100 scale (0 no effect, 100 complete control)
Outline: as §2

morningglory [14] = assay: Test A postemergence; format: in vivo, Ipomoea spp.; details: Postemergence, 1000 g ai/ha; visual rating after approx. 10 days, 0 to 100 scale (0 no effect, 100 complete control)
Outline: as §2

barnyardgrass [15] = assay: Test C flooded paddy test; format: in vivo, Echinochloa crus-galli; details: Flood
Description: At time of treatment, test pots were flooded to 3 cm above the soil surface, treated by application of test compounds directly to the paddy water, and then maintained at that water depth for the duration of the test. Treated plants and controls were maintained in a greenhouse for 13 to 15 days, after which time all species were compared to controls and visually evaluated. […] A dash (-) response means no test result.

ducksalad = assay: Test C flooded paddy test; format: in vivo, Heteranthera limosa; details: Flood
Outline: as §1

corn [16] = assay: Test A preemergence; format: in vivo, Zea mays; details: Preemergence, 1000 g ai/ha; 0 to 100 scale, 0 no effect, 100 complete control
Outline: as §2

barnyardgrass [17] = assay: Test A preemergence; format: in vivo, Echinochloa crus-galli; details: Preemergence, 1000 g ai/ha; 0 to 100 scale, 0 no effect, 100 complete control
Outline: as §2

[18] = 31 g ai/ha, scale 0 to 100 (0 no effect, 100 complete control)
[19] = 62 g ai/ha, scale 0 to 100 (0 no effect, 100 complete control)

Row | Structure (SMILES) | Plant response rating, Rice (rice; [18]) | Plant response rating, Rice (rice; [19]) | Plant response rating, Rice (rice; 125 g ai/ha, scale 0 to 100) | Plant response rating, Rice (rice; 250 g ai/ha, scale 0 to 100) | Wheat plant response rating (wheat [1]) | Plant response rating, Sedge, Umbrella (sedge, umbrella; [18]) | Plant response rating, Sedge, Umbrella (sedge, umbrella; [19]) | Plant response rating, Sedge, Umbrella (sedge, umbrella; 125 g ai/ha, scale 0 to 100) | Plant response rating, Sedge, Umbrella (sedge, umbrella; 250 g ai/ha, scale 0 to 100) | Crabgrass, Large plant response rating (crabgrass, large [2]) | Pigweed plant response rating (pigweed [3]) | Foxtail, Giant plant response rating (foxtail, giant [4]) | Velvetleaf plant response rating (velvetleaf [5]) | Crabgrass, Large plant response rating (crabgrass, large [6]) | Morningglory plant response rating (morningglory [7]) | Pigweed plant response rating (pigweed [8]) | Corn plant response rating (corn [9]) | Velvetleaf plant response rating (velvetleaf [10]) | Foxtail, Giant plant response rating (foxtail, giant [11]) | Wheat plant response rating (wheat [12]) | other results
1 | CCCc1cc(C(=O)NC2CC2)nn1Cc1cccc(OC(F)(F)F)c1 [Compound 34] | 0 | 0 | 0 | 10 | 30 | 0 | 10 | 70 | 80 | 100 | 100 | 90 | 30 | 90 | 60 | 80 | 40 | 100 | 100 | 20 | Barnyardgrass plant response rating (barnyardgrass [13]): 50; Morningglory plant response rating (morningglory [14]): 100; Plant response rating, Barnyardgrass (barnyardgrass [15]; [18]): 0; Plant response rating, Barnyardgrass (barnyardgrass [15]; [19]): 0; Plant response rating, Barnyardgrass (barnyardgrass [15]; 125 g ai/ha, scale 0 to 100): 0; Plant response rating, Barnyardgrass (barnyardgrass [15]; 250 g ai/ha, scale 0 to 100): 20; Plant response rating, Ducksalad (ducksalad; [18]): 0; Plant response rating, Ducksalad (ducksalad; [19]): 10; Plant response rating, Ducksalad (ducksalad; 125 g ai/ha, scale 0 to 100): 30; Plant response rating, Ducksalad (ducksalad; 250 g ai/ha, scale 0 to 100): 80; Corn plant response rating (corn [16]): 10; Barnyardgrass plant response rating (barnyardgrass [17]): 60
2 | CCc1cc(C(=O)NCC2CC2)nn1Cc1cccc(OC(F)(F)F)c1 [Compound 53] | 0 | 0 | 10 | 30 | 30 | 0 | 0 | 0 | 80 | 100 | 80 | 50 | 30 | 50 | 40 | 100 | 40 | 80 | 90 | 0 | Barnyardgrass plant response rating (barnyardgrass [13]): 40; Morningglory plant response rating (morningglory [14]): 90; Plant response rating, Barnyardgrass (barnyardgrass [15]; [18]): 0; Plant response rating, Barnyardgrass (barnyardgrass [15]; [19]): 0; Plant response rating, Barnyardgrass (barnyardgrass [15]; 125 g ai/ha, scale 0 to 100): 0; Plant response rating, Barnyardgrass (barnyardgrass [15]; 250 g ai/ha, scale 0 to 100): 15; Plant response rating, Ducksalad (ducksalad; [18]): 0; Plant response rating, Ducksalad (ducksalad; [19]): 0; Plant response rating, Ducksalad (ducksalad; 125 g ai/ha, scale 0 to 100): 0; Plant response rating, Ducksalad (ducksalad; 250 g ai/ha, scale 0 to 100): 40; Corn plant response rating (corn [16]): 10; Barnyardgrass plant response rating (barnyardgrass [17]): 40
3 | CCCNC(=O)c1cc(CCC)n(Cc2cccc(OC(F)(F)F)c2)n1 [Compound 35] | 0 | 0 | 0 | 0 | 20 | 20 | 30 | 50 | 80 | 100 | 90 | 40 | 50 | 70 | 50 | 90 | 20 | 100 | 100 | 0 | Barnyardgrass plant response rating (barnyardgrass [13]): 30; Morningglory plant response rating (morningglory [14]): 100; Plant response rating, Barnyardgrass (barnyardgrass [15]; [18]): 0; Plant response rating, Barnyardgrass (barnyardgrass [15]; [19]): 0; Plant response rating, Barnyardgrass (barnyardgrass [15]; 125 g ai/ha, scale 0 to 100): 10; Plant response rating, Barnyardgrass (barnyardgrass [15]; 250 g ai/ha, scale 0 to 100): 10; Plant response rating, Ducksalad (ducksalad; [18]): 0; Plant response rating, Ducksalad (ducksalad; [19]): 20; Plant response rating, Ducksalad (ducksalad; 125 g ai/ha, scale 0 to 100): 20; Plant response rating, Ducksalad (ducksalad; 250 g ai/ha, scale 0 to 100): 60; Corn plant response rating (corn [16]): 0; Barnyardgrass plant response rating (barnyardgrass [17]): 70
4 | CCCc1cc(C(=O)NCC)nn1Cc1cccc(OC(F)(F)F)c1 [Compound 33] | 0 | 0 | 0 | 0 | 20 | 10 | 30 | 30 | 85 | 100 | 80 | 70 | 40 | 80 | 40 | 90 | 20 | 80 | 90 | 10 | Barnyardgrass plant response rating (barnyardgrass [13]): 30; Morningglory plant response rating (morningglory [14]): 100; Plant response rating, Barnyardgrass (barnyardgrass [15]; [18]): 0; Plant response rating, Barnyardgrass (barnyardgrass [15]; [19]): 0; Plant response rating, Barnyardgrass (barnyardgrass [15]; 125 g ai/ha, scale 0 to 100): 0; Plant response rating, Barnyardgrass (barnyardgrass [15]; 250 g ai/ha, scale 0 to 100): 0; Plant response rating, Ducksalad (ducksalad; [18]): 0; Plant response rating, Ducksalad (ducksalad; [19]): 10; Plant response rating, Ducksalad (ducksalad; 125 g ai/ha, scale 0 to 100): 20; Plant response rating, Ducksalad (ducksalad; 250 g ai/ha, scale 0 to 100): 80; Corn plant response rating (corn [16]): 0; Barnyardgrass plant response rating (barnyardgrass [17]): 40
